From US20140057915A1, “KINASE INHIBITORS” (TOPIVERT PHARMA LIMITED, priority 2012, published 2014)

Key:
PBMC cells = experiment: Cell mitosis assay; type: cell-based; settings: Homo sapiens, read-out: % Inhibition of mitosis in PBMC cells at 5 μg/mL
Description: PBMCs from healthy subjects are separated from whole blood (Quintiles, London, UK) using a density gradient (Histopaque®-1077, Sigma-Aldrich, Poole, UK). The PBMCs (3 million cells per sample) are subsequently treated with 2% PHA (Sigma-Aldrich, Poole, UK) for 48 hr, followed by a 20 hr exposure to varying concentrations of test compounds. At 2 hr before collection, PBMCs are treated with demecolcine (0.1 μg/mL; Invitrogen, Paisley, UK) to arrest cells in metaphase. […] Fluorescence is observed using an ATTUNE flow cytometer (Invitrogen, Paisley, UK), gating for lymphocytes.

IL-2 release, PBMCs = experiment: IL-2 release in CD3/CD28 stimulated PBMC cells; type: cell-based; settings: Homo sapiens, read-out: IC50 Values for Inhibition of Cytokine Release, PBMCs, IL-2
Description: (§1) (c) IL-2 and IFN Gamma Release in CD3/CD28 Stimulated PBMC Cells
(§2) PBMCs from healthy subjects are separated from whole blood using a density gradient (Lymphoprep, Axis-Shield Healthcare). Cells are added to a 96 well plate pre-coated with a mixture of […] monoclonal antibodies (0.3 ug/ml eBioscience and 3 ug/ml BD Pharmingen respectively). Compound at the desired concentration is then added to the wells and the plate left for 3 days under normal tissue culture conditions. Supernatants are harvested and IL-2 and IFN gamma release determined by Sandwich ELISA (Duo-set, R&D System). The IC50 is determined from the dose response curve.

GSK3α [1] = target: T1, GSK3α (Homo sapiens, UniProt P49840); experiment: GSK 3α enzyme inhibition (FRET), Method 2; type: biochemical; settings: Table 4a2, different laboratory
T1 sequence (P49840 whole entry): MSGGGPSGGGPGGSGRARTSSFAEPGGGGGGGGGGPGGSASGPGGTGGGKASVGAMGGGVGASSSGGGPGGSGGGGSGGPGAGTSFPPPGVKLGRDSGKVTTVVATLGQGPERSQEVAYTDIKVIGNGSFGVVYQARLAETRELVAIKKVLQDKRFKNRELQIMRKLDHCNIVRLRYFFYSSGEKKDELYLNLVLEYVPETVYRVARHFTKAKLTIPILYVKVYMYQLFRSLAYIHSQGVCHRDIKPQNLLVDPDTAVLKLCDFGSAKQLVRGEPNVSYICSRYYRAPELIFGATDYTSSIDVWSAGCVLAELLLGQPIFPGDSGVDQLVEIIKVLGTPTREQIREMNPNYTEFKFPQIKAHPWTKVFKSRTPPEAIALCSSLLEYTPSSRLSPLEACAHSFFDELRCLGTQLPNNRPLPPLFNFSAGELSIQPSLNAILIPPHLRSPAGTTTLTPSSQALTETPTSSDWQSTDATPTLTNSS

cSrc = cSrc (Homo sapiens, UniProt P12931); experiment: c-Src enzyme inhibition (FRET); type: biochemical
Sequence of cSrc (P12931 whole entry): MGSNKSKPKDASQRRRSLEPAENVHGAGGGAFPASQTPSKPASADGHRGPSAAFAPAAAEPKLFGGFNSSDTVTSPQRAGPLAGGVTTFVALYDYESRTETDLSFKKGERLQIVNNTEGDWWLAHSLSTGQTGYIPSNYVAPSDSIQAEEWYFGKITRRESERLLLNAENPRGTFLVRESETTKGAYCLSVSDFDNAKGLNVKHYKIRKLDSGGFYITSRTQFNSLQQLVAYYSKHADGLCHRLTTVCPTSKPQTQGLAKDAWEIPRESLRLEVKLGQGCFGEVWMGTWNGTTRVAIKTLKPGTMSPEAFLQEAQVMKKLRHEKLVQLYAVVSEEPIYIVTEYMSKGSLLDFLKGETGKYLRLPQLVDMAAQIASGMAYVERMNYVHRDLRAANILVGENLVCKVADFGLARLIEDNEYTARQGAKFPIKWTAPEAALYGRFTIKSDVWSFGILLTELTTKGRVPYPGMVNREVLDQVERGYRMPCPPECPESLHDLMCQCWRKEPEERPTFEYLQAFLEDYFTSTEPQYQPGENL
Method in brief: (§3)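 2 hr RT enzyme + cpd (added solns 4/0.4/0.04/0.004 μg/mL); + FRET peptide (8 μM soln) + ATP soln (c-Src 800 μM, Syk 60 μM), 1 hr; protease development 1 hr; read donor/acceptor emission ratio.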

Syk = Syk (Homo sapiens, UniProt P43405); experiment: Syk enzyme inhibition (FRET); type: biochemical
Method in brief: as §3

IFN gamma release, PBMCs = experiment: IFN gamma release in CD3/CD28 stimulated PBMC cells; type: cell-based; settings: Homo sapiens, read-out: IC50 Values for Inhibition of Cytokine Release, PBMCs, IFNγ
Description: as §1, §2

IL-8 release, PBMCs = experiment: LPS-induced IL-8 release in PBMC cells; type: cell-based; settings: Homo sapiens, LPS stimulated, read-out: IC50 Values for Inhibition of Cytokine Release, PBMCs, IL-8
Method in brief: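 PBMCs from healthy donors pretreated with compound for 2 h, then stimulated with 1 ng/ml LPS (E. coli 0111:B4) for 24 h at 37 °C, 5% CO2. Supernatant IL-8 and TNFα measured by sandwich ELISA with fluorescence read-out.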

IL-8 release, HT29 cells = experiment: IL-1β-induced IL-8 release in HT29 cells; type: cell-based; settings: Homo sapiens, HT-29; IL-1β stimulated; read-out: IC50 Values for Inhibition of Cytokine Release, HT29 cells, IL-8
Description: (d) IL-1β-Induced IL-8 Release in HT29 Cells
HT29 cells, a human colon adenocarcinoma cell line, are plated in a 96 well plate (24 hrs) and pre-treated with compounds at the desired concentration for 2 hours before addition of 5 ng/ml of IL-1β (Abeam) for 24 hours, Supernatants are harvested for IL-8 quantification by Sandwich ELISA (Duo-set, R&D System). The IC50 is determined from the dose response curve.

[2] = system: TNFα release, d-U937 cells; experiment: LPS-induced TNFα release in d-U937 cells; type: cell-based; settings: Homo sapiens, dU937; relative to 10 μg/mL BIRB796; Table 4c1; read-out: LPS Induced Release of Cytokine in d-U937 Cells, TNFα REC50
Method in brief: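 U937 cells differentiated with PMA (100 ng/mL, 48–72 hr), pre-treated with compound for 2 hr, then stimulated with E. coli LPS (0.1 μg/mL) for 4 hr. Supernatant cytokine measured by sandwich ELISA; inhibition versus vehicle control, REC50 from concentration-response curve.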

[3] = system: IL-8 release, d-U937 cells; experiment: LPS-induced IL-8 release in d-U937 cells; type: cell-based; settings: Homo sapiens, dU937; Table 4c1; read-out: LPS Induced Release of Cytokine in d-U937 Cells, IL-8 IC50
Method in brief: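 IL-8 release after a 4 hr challenge with LPS (0.1 μg/mL, E. coli 0111:B4) following a 2 hr compound pretreatment. Cells were human U937 monocytes differentiated to macrophage-type with PMA 100 ng/mL for 48–72 hr. Relative 50% effective concentration derived from concentration–response data.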

HRV16 in MRC5 cells = experiment: HRV16 induced CPE in MRC5 cells; type: cell-based; settings: Human rhinovirus sp., HRV-16
Description: (j) Assessment of HRV16 Induced CPE in MRC5 Cells
MRC-5 cells are infected with HRV16 at an MOI of 1n DMEM containing 5% FCS and 1.5 mM magnesium chloride, followed by incubation for 1 hr at 33° C. to promote adsorption. The supernatants are aspirated, and then fresh media added followed by incubation for 4 days. Where appropriate, cells are pre-incubated with compound or DMSO for 2 hr, and the compounds and DMSO added again after washout of the virus.
After washing, 1% SDS in distilled water (100 μL) is added to each well, and the plates are shaken lightly for 1-2 hr prior to reading the absorbance at 660 nm. The percentage inhibition for each well is calculated. The IC50 value is calculated from the concentration-response curve generated by the serial dilutions of the test compounds.

GSK3α [4] = target: T1, GSK3α; experiment: GSK 3α enzyme inhibition (FRET), Method 1; type: biochemical; settings: Table 4a1
Method in brief: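 Steps: preincubate GSK3α with compound 2 hr at room temperature; start reaction with peptide and ATP for 1 hr; develop with site-specific protease for 1 hr; measure fluorescence and take the coumarin/fluorescein ratio as the phosphorylation level.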

d-U937 cells = experiment: Cell viability: MTT assay; type: cell-based, human; settings: 1 μg/mL
Method in brief: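 Differentiated U937 cells exposed to compound at 1 or 10 μg/mL, either 4 h in 5% FCS or 24 h in 10% FCS RPMI1640. MTT then added for 1 h, formazan dissolved in DMSO and read at 550 nm. Viability loss given as % versus 0.5% DMSO vehicle; apparent gains appear negative.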

[5] = system: ICAM-1 expression, BEAS2B cells; experiment: Poly I:C-induced ICAM-1 expression in BEAS2B cells; type: cell-based; settings: Homo sapiens, BEAS-2B; read-out: Poly IC induced ICAM1 in BEAS2B, IC50
Method in brief: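 BEAS2B human bronchial epithelial cells pre-incubated 2 h with compound, then transfected with poly I:C (1 μg/mL) plus Oligofectamine. After 18 h, cell-surface ICAM-1 read by cell-based ELISA (A450–655), normalised to Crystal Violet cell number (A595); inhibition calculated against vehicle control at each concentration.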

[6] = Table 4a2, different laboratory

SMILES | inhibition at 5 µg/mL (PBMC cells) | IC50 (IL-2 release, PBMCs) | IC50 (GSK3α [1]) | IC50 (cSrc; [6]) | IC50 (Syk; [6]) | IC50 (IFN gamma release, PBMCs) | IC50 (IL-8 release, PBMCs) | IC50 (IL-8 release, HT29 cells) | EC50 [2] | IC50 [3] | IC50 (HRV16 in MRC5 cells) | IC50 (cSrc; Table 4a1) | IC50 (Syk; Table 4a1) | IC50 (GSK3α [4]) | Cell viability at time point in d-U937 cells, 4 h (d-U937 cells) | Cell viability at time point in d-U937 cells, 24 h (d-U937 cells) | IC50 [5]
C#Cc1cc(Nc2nccc(Oc3ccc(NC(=O)Nc4cc(C(C)(C)C)nn4-c4ccc(C)cc4)c4ccccc34)n2)cc(C(=O)N[C@H](C)CN2CCOCC2)c1 [Example 83, (R)-3-((4-((4-(3-(3-(tert-Butyl)-1-(p-tolyl)-1H-pyrazol-5-yl)ureido)naphthalen-1-yl)oxy)pyrimidin-2-yl)amino)-5-ethynyl-N-(1-morpholinopropan-2-yl)benzamide] | 20.9% | 124 nM | 11700 nM | 26 nM | 59 nM | 1.8 nM | 3.8 nM | 5.3 nM |  |  |  |  |  |  |  |  | 
C#Cc1cc(Nc2nccc(Oc3ccc(NC(=O)Nc4cc(C(C)(C)C(F)(F)F)nn4-c4ccc(C)cc4)c4ccccc34)n2)cc(C(=O)NCCN2CCOCC2)c1 [Example 76, 3-Ethynyl-N-(2-morpholinoethyl)-5-((4-((4-(3-(1-(p-tolyl)-3-(1,1,1-trifluoro-2-methylpropan-2-yl)-1H-pyrazol-5-yl)ureido)naphthalen-1-yl)oxy)pyrimidin-2-yl)amino)-benzamide] | 23% | 188 nM | 1780 nM | 45 nM | 34 nM | 1.8 nM | 2.1 nM | 3 nM |  |  |  |  |  |  |  |  | 
C#Cc1cc(Nc2nccc(Oc3ccc(NC(=O)Nc4cc(C(C)(C)C)nn4-c4ccc(OC)cc4)c4ccccc34)n2)cc(C(=O)N[C@@H](C)COC)c1 [Example 85, (S)-3-((4-((4-(3-(3-(tert-Butyl)-1-(4-methoxyphenyl)-1H-pyrazol-5-yl)ureido)-naphthalen-1-yl)oxy)pyrimidin-2-yl)amino)-5-ethynyl-N-(1-methoxypropan-2-yl)-benzamide] | 6.6% | 27.3 nM | 7950 nM | 33 nM | 92 nM | 3.1 nM | 2.8 nM |  |  |  |  |  |  |  |  |  | 
C#Cc1cc(Nc2nccc(Oc3ccc(NC(=O)Nc4cc(C(C)(C)C)nn4-c4ccc(OC)cc4)c4ccccc34)n2)cc(C(=O)NCCOC)c1 [Example 84, 3-((4-((4-(3-(3-(tert-Butyl)-1-(4-methoxyphenyl)-1H-pyrazol-5-yl)ureido)-naphthalen-1-yl)oxy)pyrimidin-2-yl)amino)-5-ethynyl-N-(2-methoxyethyl)benzamide] | 0.5% | 16 nM | ≥ 13800 nM | 15 nM | 33 nM | 2.2 nM | 1.6 nM |  |  |  |  |  |  |  |  |  | 
C#Cc1cc(Nc2nccc(Oc3ccc(NC(=O)Nc4cc(C(C)(C)C#N)nn4-c4ccc(C)cc4)c4ccccc34)n2)cc(C(=O)NCCN2CCOCC2)c1 [Example 78, 3-((4-((4-(3-(3-(2-Cyanopropan-2-yl)-1-(p-tolyl)-1H-pyrazol-5-yl)ureido)-naphthalen-1-yl)oxy)pyrimidin-2-yl)amino)-5-ethynyl-N-(2-morpholinoethyl)benzamide] | 2.1% | 27.3 nM | 2810 nM | 8 nM | 23 nM | 2.4 nM | 0.9 nM |  |  |  |  |  |  |  |  |  | 
Cc1ccc(-n2nc(C(C)(C)C)cc2NC(=O)Nc2ccc(Oc3ccnc(Nc4cc(C)cc(C(N)=O)c4)n3)c3ccccc23)cc1 [Example 40, 3-((4-((4-(3-(3-(tert-butyl)-1-(p-tolyl)-1H-pyrazol-5-yl)ureido)naphthalen-1-yl)oxy)pyrimidin-2-yl)amino)-5-methylbenzamide] |  |  |  |  |  |  |  |  | 0.2 nM | 2.2 nM | 2.9 nM | 3 nM | 9 nM | 1340 nM | −ve (−ve and +ve indicate that the value is below and above respectively, the no significant effect threshold, defined as 30% inhibition at 1 μg/mL at the time point indicated) | −ve (−ve and +ve indicate that the value is below and above respectively, the no significant effect threshold, defined as 30% inhibition at 1 μg/mL at the time point indicated) | 0.7 nM
COc1ccc(C(=O)NCCN2CCOCC2)cc1Nc1nccc(Oc2ccc(NC(=O)Nc3cc(C(C)C)nn3-c3ccc(C)cc3)c3ccccc23)n1 [Example 30, 3-((4-((4-(3-(3-isopropyl-1-(p-tolyl)-1H-pyrazol-5-yl)ureido)naphthalen-1-yl)oxy)pyrimidin-2-yl)amino)-4-methoxy-N-(2-morpholinoethyl)benzamide] |  |  |  |  |  |  |  |  | 2.1 nM | 9 nM | 0.43 nM | 1 nM | 103 nM | > 13200 nM | −ve (−ve and +ve indicate that the value is below and above respectively, the no significant effect threshold, defined as 30% inhibition at 1 μg/mL at the time point indicated) | −ve (−ve and +ve indicate that the value is below and above respectively, the no significant effect threshold, defined as 30% inhibition at 1 μg/mL at the time point indicated) | 117 nM
